Measured values from BindingDB's records for patent US20240254114 (Merck Sharp & Dohme, 2024).
pIC50: −log10 of the molar value.

Biological target: T1, Diacylglycerol O-acyltransferase 2 (Homo sapiens, UniProt Q96PD7)
T1 sequence (Q96PD7 whole entry): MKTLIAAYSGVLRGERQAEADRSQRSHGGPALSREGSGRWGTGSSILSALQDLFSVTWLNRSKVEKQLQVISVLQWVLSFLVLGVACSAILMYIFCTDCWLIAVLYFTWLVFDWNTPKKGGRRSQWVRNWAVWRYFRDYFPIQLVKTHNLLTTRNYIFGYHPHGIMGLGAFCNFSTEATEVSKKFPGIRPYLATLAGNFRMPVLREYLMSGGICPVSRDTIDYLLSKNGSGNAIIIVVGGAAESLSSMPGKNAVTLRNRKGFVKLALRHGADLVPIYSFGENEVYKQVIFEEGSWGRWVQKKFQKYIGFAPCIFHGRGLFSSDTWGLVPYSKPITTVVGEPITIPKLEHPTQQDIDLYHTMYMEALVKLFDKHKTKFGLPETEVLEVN
Experiment: DGAT2 Enzymatic Activity Assay
Method: DGAT2 activity was determined by measuring the amount of enzymatic product 13C18-triolein (13C-1,2,3-Tri(cis-9-octadecenoyl)glycerol) using the membrane prep mentioned above. The assay was carried out in ABgene 384-well assay plates in a final volume of 25 uL at rt.

pIC50: 5.99
Compound: O=C(NC1CN(C(=O)C(F)(F)F)C1)c1nc2ccc(Oc3ncc(Cl)cc3OCC(F)(F)F)cc2o1 [US20240254114, Example 8]
